Broadly, the IC50 is the point on the concentration scale where inhibition reaches its midpoint. Lower therefore signals greater potency.

Bounds are passed on as bounds.

The target in one assay is CDK2/Cyclin E1 (Homo sapiens, UniProt P24941). The experiment in a line: CDK2/Cyclin E1 Biochemical Assay (TR-FRET), 0.060 mM ATP. The following applies: 0.15 μM Rb (Ser780)-biotin substrate, pH7.0, 60 min preincubation, 120 min reaction, room temperature. In outline:
(§1)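 Phosphorylation of a biotin-tagged Rb Ser780 peptide (0.15 μM) is measured by time-resolved FRET between a europium-labelled phospho-specific antibody and streptavidin-XL665. Compound (0–10 μM) sits with enzyme 60 min first; the kinase reaction then proceeds 120 min at room temperature, pH 7.0.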
Background: TR-FRET usually uses a lanthanide donor and a delayed reading to cut background.

For a further assay, the target named is CDK1/Cyclin B1 (Homo sapiens, UniProt P06493). In words: CDK1/Cyclin B1 Biochemical Assay (TR-FRET), 0.015 mM ATP. The following applies: 0.15 μM Rb (Ser780)-biotin substrate, pH7.0, 60 min preincubation, 120 min reaction, room temperature. The procedure, abridged: as §1
Chain of CDK1/Cyclin B1 (P06493 whole entry): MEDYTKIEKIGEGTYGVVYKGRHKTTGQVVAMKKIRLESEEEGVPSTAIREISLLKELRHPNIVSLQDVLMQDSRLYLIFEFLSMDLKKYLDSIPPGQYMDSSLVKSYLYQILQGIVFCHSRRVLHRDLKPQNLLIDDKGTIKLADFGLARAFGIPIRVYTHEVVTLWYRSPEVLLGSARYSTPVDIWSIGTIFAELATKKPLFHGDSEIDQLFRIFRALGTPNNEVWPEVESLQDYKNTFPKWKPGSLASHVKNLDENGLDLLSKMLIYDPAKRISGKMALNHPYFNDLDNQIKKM
Chain of CDK1/Cyclin B1 (P14635 whole entry partner): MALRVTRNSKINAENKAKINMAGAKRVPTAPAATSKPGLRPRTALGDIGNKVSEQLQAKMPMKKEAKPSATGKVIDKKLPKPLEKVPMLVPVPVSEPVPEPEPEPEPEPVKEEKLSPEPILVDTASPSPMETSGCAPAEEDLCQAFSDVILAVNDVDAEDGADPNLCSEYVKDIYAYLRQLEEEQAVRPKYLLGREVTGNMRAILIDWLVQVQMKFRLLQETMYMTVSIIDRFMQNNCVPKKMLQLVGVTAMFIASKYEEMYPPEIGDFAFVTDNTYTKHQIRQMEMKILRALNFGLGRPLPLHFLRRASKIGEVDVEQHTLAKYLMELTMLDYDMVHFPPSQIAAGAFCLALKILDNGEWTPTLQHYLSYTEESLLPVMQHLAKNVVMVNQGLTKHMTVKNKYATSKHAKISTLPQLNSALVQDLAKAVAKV

`CC(C)NC(=O)O[C@H]1CC[C@@H](c2cc(Nc3ccc4c(c3F)CN(C3CCN(C)C3=O)S4(=O)=O)n[nH]2)C1` (relative stereo) [Example 93, cis-3-(3-((4-fluoro-2-(1-methyl-2-oxopyrrolidin-3-yl)-1,1-dioxido-2,3-dihydrobenzo[d]isothiazol-5-yl)amino)-1H-pyrazol-5-yl)cyclopentyl isopropylcarbamate]: the IC50 turned out to be 6.3 nM at CDK2/Cyclin E1 and 531 nM on CDK1/Cyclin B1.

With `CC(C)NC(=O)O[C@H]1CC[C@@H](c2cc(Nc3ccc4c(c3F)CN(C3CN(C(c5ccccc5)c5ccccc5)C3)S4(=O)=O)n[nH]2)C1` (relative stereo) [Example 94, cis-3-(3-((2-(1-benzhydrylazetidin-3-yl)-4-fluoro-1,1-dioxido-2,3-dihydrobenzo[d]isothiazol-5-yl)amino)-1H-pyrazol-5-yl)cyclopentyl isopropylcarbamate], the IC50 at CDK2/Cyclin E1 was 332 nM; against CDK1/Cyclin B1, above 10000 nM.

Turning to `CC(C)NC(=O)O[C@H]1CC[C@@H](c2cc(Nc3ccc4c(c3F)CN(CC3CC3)S4(=O)=O)n[nH]2)C1` (relative stereo) [Example 95, cis-3-(3-((2-(cyclopropylmethyl)-4-fluoro-1,1-dioxido-2,3-dihydrobenzo[d]isothiazol-5-yl)amino)-1H-pyrazol-5-yl)cyclopentyl isopropylcarbamate], the IC50 against CDK2/Cyclin E1 is 15 nM; against CDK1/Cyclin B1 it was 972 nM.

`CC(C)NC(=O)O[C@H]1CC[C@@H](c2cc(Nc3ccc4c(c3F)CN(CC3CCC3)S4(=O)=O)n[nH]2)C1` (relative stereo) [Example 96, cis-3-(3-((2-(cyclobutylmethyl)-4-fluoro-1,1-dioxido-2,3-dihydrobenzo[d]isothiazol-5-yl)amino)-1H-pyrazol-5-yl)cyclopentyl isopropylcarbamate]: the IC50 amounted to 36 nM on CDK2/Cyclin E1 and 2020 nM against CDK1/Cyclin B1.

On to `CC(C)NC(=O)O[C@H]1CC[C@@H](c2cc(Nc3ccc4c(c3F)CN(CC3COC3)S4(=O)=O)n[nH]2)C1` (relative stereo) [Example 97, cis-3-(3-((4-fluoro-2-(oxetan-3-ylmethyl)-1,1-dioxido-2,3-dihydrobenzo[d]isothiazol-5-yl)amino)-1H-pyrazol-5-yl)cyclopentyl isopropylcarbamate], for which the IC50 on CDK2/Cyclin E1 turned out to be 5.2 nM; against CDK1/Cyclin B1, 449 nM.

Take `CC(C)NC(=O)O[C@H]1CC[C@@H](c2cc(Nc3ccc4c(c3F)CN(C[C@@H](N)C(C)(C)C)S4(=O)=O)n[nH]2)C1` (relative stereo) [Example 98, cis-3-(3-((2-((S)-2-amino-3,3-dimethylbutyl)-4-fluoro-1,1-dioxido-2,3-dihydrobenzo[d]isothiazol-5-yl)amino)-1H-pyrazol-5-yl)cyclopentyl isopropylcarbamate]: the IC50 at CDK2/Cyclin E1 came out at 20 nM; against CDK1/Cyclin B1 it was 1910 nM.

For `CC(C)NC(=O)O[C@H]1CC[C@@H](c2cc(Nc3ccc4c(c3F)CN(C[C@H](N)C(C)(C)C)S4(=O)=O)n[nH]2)C1` (relative stereo) [Example 99, cis-3-(3-((2-((R)-2-amino-3,3-dimethylbutyl)-4-fluoro-1,1-dioxido-2,3-dihydrobenzo[d]isothiazol-5-yl)amino)-1H-pyrazol-5-yl)cyclopentyl isopropylcarbamate], the IC50 stood at 12 nM on CDK2/Cyclin E1 and 529 nM against CDK1/Cyclin B1.

`CC(C)NC(=O)O[C@H]1CC[C@@H](c2cc(Nc3ccc4c(c3F)CN(C3CCN(C)C(=O)C3)S4(=O)=O)n[nH]2)C1` (relative stereo) [Example 100, cis-3-(3-((4-fluoro-2-(1-methyl-2-oxopiperidin-4-yl)-1,1-dioxido-2,3-dihydrobenzo[d]isothiazol-5-yl)amino)-1H-pyrazol-5-yl)cyclopentyl isopropylcarbamate]: the results for the IC50 at CDK2/Cyclin E1 and against CDK1/Cyclin B1 were 5.2 nM and 236 nM, respectively.

For `CC(C)CN1Cc2c(ccc(Nc3cc([C@@H]4CC[C@H](OC(=O)NC(C)C)C4)[nH]n3)c2F)S1(=O)=O` (relative stereo) [Example 101, cis-3-(3-((4-fluoro-2-isobutyl-1,1-dioxido-2,3-dihydrobenzo[d]isothiazol-5-yl)amino)-1H-pyrazol-5-yl)cyclopentyl isopropylcarbamate], the IC50 stood at 10 nM at CDK2/Cyclin E1 and 1020 nM at CDK1/Cyclin B1.

Take `CC(C)NC(=O)O[C@H]1CC[C@@H](c2cc(Nc3ccc4c(c3F)CN(C(C)C3COC3)S4(=O)=O)n[nH]2)C1` (relative stereo) [Example 104, cis-3-(3-((4-fluoro-2-(1-(oxetan-3-yl)ethyl)-1,1-dioxido-2,3-dihydrobenzo[d]isothiazol-5-yl)amino)-1H-pyrazol-5-yl)cyclopentyl isopropylcarbamate]: the half-maximal inhibitory concentration (IC50) against CDK2/Cyclin E1 was 5.7 nM; against CDK1/Cyclin B1, 244 nM.

Take `CC(C)NC(=O)O[C@H]1CC[C@@H](c2cc(Nc3ccc4c(c3F)CN(CC3CNC3)S4(=O)=O)n[nH]2)C1` (relative stereo) [Example 105, cis-3-(3-((2-(azetidin-3-ylmethyl)-4-fluoro-1,1-dioxido-2,3-dihydrobenzo[d]isothiazol-5-yl)amino)-1H-pyrazol-5-yl)cyclopentyl isopropylcarbamate]: the results for the IC50 on CDK2/Cyclin E1 and at CDK1/Cyclin B1 were 8.4 nM and 689 nM, respectively.

`CC(C)NC(=O)O[C@H]1CC[C@@H](c2cc(Nc3ccc4c(c3F)CN(CC3CN(C)C3)S4(=O)=O)n[nH]2)C1` (relative stereo) [Example 106, cis-3-(3-((4-fluoro-2-((1-methylazetidin-3-yl)methyl)-1,1-dioxido-2,3-dihydrobenzo[d]isothiazol-5-yl)amino)-1H-pyrazol-5-yl)cyclopentyl isopropylcarbamate]: the figures for the IC50 at CDK2/Cyclin E1 and against CDK1/Cyclin B1 were 6 nM and 631 nM, respectively.

Regarding `CC(=O)N1CC(CN2Cc3c(ccc(Nc4cc([C@@H]5CC[C@H](OC(=O)NC(C)C)C5)[nH]n4)c3F)S2(=O)=O)C1` (relative stereo) [Example 107, cis-3-(3-((2-((1-acetylazetidin-3-yl)methyl)-4-fluoro-1,1-dioxido-2,3-dihydrobenzo[d]isothiazol-5-yl)amino)-1H-pyrazol-5-yl)cyclopentyl isopropylcarbamate], the IC50 against CDK2/Cyclin E1 worked out at 9.6 nM; at CDK1/Cyclin B1, 532 nM.

In the case of `CC(C)NC(=O)O[C@H]1CC[C@@H](c2cc(Nc3ccc4c(c3F)CN(CC3CCCCC3)S4(=O)=O)n[nH]2)C1` (relative stereo) [Example 108, cis-3-(3-((2-(cyclohexylmethyl)-4-fluoro-1,1-dioxido-2,3-dihydrobenzo[d]isothiazol-5-yl)amino)-1H-pyrazol-5-yl)cyclopentyl isopropylcarbamate], the IC50 at CDK2/Cyclin E1 is 37 nM; against CDK1/Cyclin B1 it was above 10000 nM.

As to `CC(C)NC(=O)O[C@H]1CC[C@@H](c2cc(Nc3ccc4c(c3F)CN(C3CCCC3O)S4(=O)=O)n[nH]2)C1` (relative stereo) [Example 109, cis-3-(3-((4-fluoro-2-(2-hydroxycyclopentyl)-1,1-dioxido-2,3-dihydrobenzo[d]isothiazol-5-yl)amino)-1H-pyrazol-5-yl)cyclopentyl isopropylcarbamate], the IC50 was determined as 11 nM against CDK2/Cyclin E1 and 1190 nM against CDK1/Cyclin B1.

Consider `CC(C)NC(=O)O[C@H]1CC[C@@H](c2cc(Nc3ccc4c(c3F)CN(CC3CCNC3=O)S4(=O)=O)n[nH]2)C1` (relative stereo) [Example 110, cis-3-(3-((4-fluoro-1,1-dioxido-2-((2-oxopyrrolidin-3-yl)methyl)-2,3-dihydrobenzo[d]isothiazol-5-yl)amino)-1H-pyrazol-5-yl)cyclopentyl isopropylcarbamate], for which the figures for the IC50 against CDK2/Cyclin E1 and at CDK1/Cyclin B1 were 2.7 nM and 225 nM, respectively.

In the case of `CC(C)NC(=O)O[C@H]1CC[C@@H](c2cc(Nc3ccc4c(c3F)CN(CC3CCN(C)C3=O)S4(=O)=O)n[nH]2)C1` (relative stereo) [Example 111, cis-3-(3-((4-fluoro-2-((1-methyl-2-oxopyrrolidin-3-yl)methyl)-1,1-dioxido-2,3-dihydrobenzo[d]isothiazol-5-yl)amino)-1H-pyrazol-5-yl)cyclopentyl isopropylcarbamate], the values for the IC50 against CDK2/Cyclin E1 and on CDK1/Cyclin B1 were 2.1 nM and 225 nM, respectively.

Turning to `CC(C)NC(=O)O[C@H]1CC[C@@H](c2cc(Nc3ccc4c(c3F)CN(CCN3CCOCC3)S4(=O)=O)n[nH]2)C1` (relative stereo) [Example 112, cis-3-(3-((4-fluoro-2-(2-morpholinoethyl)-1,1-dioxido-2,3-dihydrobenzo[d]isothiazol-5-yl)amino)-1H-pyrazol-5-yl)cyclopentyl isopropylcarbamate], the figures for the IC50 on CDK2/Cyclin E1 and against CDK1/Cyclin B1 were 6.3 nM and 458 nM, respectively.

On to `CC(C)NC(=O)O[C@H]1CC[C@@H](c2cc(Nc3ccc4c(c3F)CN(CCCO)S4(=O)=O)n[nH]2)C1` (relative stereo) [Example 113, cis-3-(3-((4-fluoro-2-(3-hydroxypropyl)-1,1-dioxido-2,3-dihydrobenzo[d]isothiazol-5-yl)amino)-1H-pyrazol-5-yl)cyclopentyl isopropylcarbamate], for which the IC50 at CDK2/Cyclin E1 worked out at 3.6 nM; against CDK1/Cyclin B1, 288 nM.

Take `CC(C)NC(=O)O[C@H]1CC[C@@H](c2cc(Nc3ccc4c(c3F)CN(CCC3CCOCC3)S4(=O)=O)n[nH]2)C1` (relative stereo) [Example 114, cis-3-(3-((4-fluoro-1,1-dioxido-2-(2-(tetrahydro-2H-pyran-4-yl)ethyl)-2,3-dihydrobenzo[d]isothiazol-5-yl)amino)-1H-pyrazol-5-yl)cyclopentyl isopropylcarbamate]: the IC50 came to 9.6 nM at CDK2/Cyclin E1 and 596 nM against CDK1/Cyclin B1.

Consider `CC(C)NC(=O)O[C@H]1CC[C@@H](c2cc(Nc3ccc4c(c3F)CN(C(C)C3CCOC3)S4(=O)=O)n[nH]2)C1` (relative stereo) [Example 115, cis-3-(3-((4-fluoro-1,1-dioxido-2-(1-(tetrahydrofuran-3-yl)ethyl)-2,3-dihydrobenzo[d]isothiazol-5-yl)amino)-1H-pyrazol-5-yl)cyclopentyl isopropylcarbamate], for which the IC50 was 6 nM against CDK2/Cyclin E1 and 407 nM against CDK1/Cyclin B1.

(Values after patent US20260297080A1, “BICYCLIC COMPOUNDS AS CDK INHIBITORS” (BeOne Medicines I GmbH, priority 2022, published 2026).)
